# pEC50, pIC50: −log10 of the molar value. Where two headings read alike, the source gives them in different places.
# Key:
# [1] = system: HER3-ss+4aa/Gaussia Luciferase; assay: Dox-Inducible Her3-ss-Gluc Assay; assay type: cell-based
# Excerpt: Flp-In 293 T-REx™ cells were transfected with pcDNA™5/FRT/TO plasmid inserted with cDNA encoding Gaussia Luciferase fused to the 3′ end of cDNA encoding HER3 signal sequence plus 4 amino acids (N-[…]-C) (SEQ ID NO: 2). Transfected cells were selected for resistance to the selectable markers Hygromycin and Blasticidin to create a stable cell line that contained the HER3-ss+4aa/Gaussia Luciferase cDNA insert whose expression was regulated under the T-REx™ system. The day before assay, cells were trypsinized and plated in 384-well tissue culture plates. The next day, compound dilutions in DMSO/media containing doxycycline were added to the wells and incubated at 37° C., 5% CO2.
# (§1) For chemical structures that include one or more stereoisomers, but are illustrated without indicating stereochemistry, the assay data refers to a mixture of stereoisomers.
# [2] = system: multiple myeloma cell line U266B1; assay: U266 Cell Viability Assay; assay type: cell-based; settings: Homo sapiens; for pEC50: U-266, U266B1 cells, 48 hours, Celltiter-Glo, read-out: 48 hr U266 Viability Celltiter-Glo: Mean EC50
# In short: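 U266B1 multiple myeloma cells in RPMI 1640/10% FBS were treated with compound dilutions for 48 h at 37 °C, 5% CO2. Viability was measured by CellTiter-Glo luminescence; compounds drawn without stereochemistry were tested as stereoisomer mixtures.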
# [3] = system: multiple myeloma cell line NCI-H929; assay: H929 Cell Viability Assay; assay type: cell-based, human; settings: Homo sapiens; for pEC50: NCI-H929 cells, 48 hours, Celltiter-Glo, read-out: 48 hr H929 Viability Celltiter-Glo: Mean EC50
# In short: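 NCI-H929 cells in RPMI 1640 with 10% FBS were treated with compound dilutions for 48 h at 37° C, 5% CO2. Viability was read by CellTiter-Glo luminescence. Undefined stereocentres denote stereoisomer mixtures.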
# [4] = system: TNFα-FL/Gaussia Luciferase; assay: Dox Induced TNFα-FL-Gluc Assay; assay type: cell-based
# Excerpt: Flp-In 293 T-REx™ cells were transfected with pcDNA™5/FRT/TO plasmid inserted with cDNA encoding Gaussia Luciferase fused to the 3′ end of cDNA encoding full length TNFα (amino acids 1-233). Transfected cells were selected for resistance to the selectable markers Hygromycin and Blasticidin to create a stable cell line that contained the TNFα-FL/Gaussia Luciferase cDNA insert whose expression was regulated under the T-REx™ system. The day before assay, cells were trypsinized and plated in 384-well tissue culture plates. The next day, compound dilutions in DMSO/media containing doxycycline were added to the wells and incubated at 37° C., 5% CO2.
# as §1
# [5] = system: IL-2-FL/Gaussia Luciferase; assay: Dox Inducible IL2-FL-Gluc Assay; assay type: cell-based
# In short: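 Stable Flp-In 293 T-REx cells carrying doxycycline-inducible full-length IL-2 (aa 1-153) fused to Gaussia luciferase, plated the day before assay. Compound dilutions added in medium containing doxycycline, incubated at 37 °C, 5% CO2. Undefined stereocentres mean data refer to stereoisomer mixtures.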
# [6] = Liver Microsome Stability Assay, monkey; assay type: in vitro ADME; settings: monkey liver microsomes 1.0 mg/mL, 1.0 uM compound, 37° C., 1 mM NADPH
# In short: (§2)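 Compound at 1.0 uM (0.4% DMSO) was incubated at 37° C with 1.0 mg/mL liver microsomes in 0.1 M potassium phosphate, with or without 1 mM NADPH. Samples were quenched at 0 and 30 minutes.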
# [7] = Liver Microsome Stability Assay, human; assay type: in vitro ADME; settings: human liver microsomes 1.0 mg/mL, 1.0 uM compound, 37° C., 1 mM NADPH
# In short: as §2
# [8] = system: PD1-ss+10aa/Gaussia Luciferase; assay: Dox-Induced PD1-ss-Gluc Assay; assay type: cell-based
# In short: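 Stable Flp-In 293 T-REx cells carried a doxycycline-inducible construct of Gaussia luciferase fused to the PD1 signal sequence plus 10 amino acids. Cells were plated the day before, then treated with compound dilutions in DMSO/media containing doxycycline at 37 °C, 5% CO2.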
# [9] = Liver Microsome Stability Assay, mouse; assay type: in vitro ADME; settings: mouse liver microsomes 1.0 mg/mL, 1.0 uM compound, 37° C., 1 mM NADPH
# In short: as §2
# [10] = Liver Microsome Stability Assay, rat; assay type: in vitro ADME; settings: rat liver microsomes 1.0 mg/mL, 1.0 uM compound, 37° C., 1 mM NADPH
# In short: as §2
# CD47(ss + 10)Gluc = assay: Dox-Induced CD47-ss-Gluc Assay; assay type: cell-based; settings: Flp-In 293 T-REx cells, 24 hours with doxycycline; Table 1; read-out: 24 hr Dox Inducible CD47(ss + 10)Gluc 293FRT/TO: Mean IC50
# [11] = system: IL6R-ss+10aa/Gaussia Luciferase; assay: Dox-induced IL-6R-ss-Gluc Assay; assay type: cell-based; settings: Table 1
# In short: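 Flp-In 293 T-REx cells stably carrying a doxycycline-inducible IL6R signal sequence+10 aa fused to Gaussia luciferase. Cells plated the day before; compound dilutions added in DMSO/media containing doxycycline and incubated at 37 °C, 5% CO2.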
# [12] = Flp-In 293 T-REx cells, 24 hours with doxycycline; Table 3; read-out: 24 hr Dox Inducible Her3(ss + 4)Gluc 293FRT/TO: Mean IC50
# [13] = Flp-In 293 T-REx cells, 24 hours with doxycycline; Table 3; read-out: 24 hr Dox Inducible TNFaFLGluc 293FRT/TO: Mean IC50
# [14] = ratio of IC50s TNF/PD1; Table 3
# [15] = Flp-In 293 T-REx cells, 24 hours with doxycycline; Table 3; read-out: 24 hr Dox Inducible IL2FLGluc 293FRT/TO: Mean IC50
# [16] = ratio of IC50s IL2/PD1; Table 3
# [17] = Flp-In 293 T-REx cells, 24 hours with doxycycline; Table 3; read-out: 24 hr Dox Inducible PD1ssGluc 293FRT/TO: Mean IC50
Structure (SMILES),"pIC50 [1, 12]",pEC50 [2],pEC50 [3],"pIC50 [4, 13]","24 hr Dox Inducible TNFaFLGluc 293FRT/TO: TNF/PD1 [4, 14]","pIC50 [5, 15]","24 hr Dox Inducible IL2FLGluc 293FRT/TO: IL2/PD1 [5, 16]",Liver Microsome Stability (Multiple Species): Monkey - % Remaining after 30 min w/ NADPH (%) [6] [%],Liver Microsome Stability (Multiple Species): Human - % Remaining after 30 min w/ NADPH (%) [7] [%],"pIC50 [8, 17]",Liver Microsome Stability (Multiple Species): Mouse - % Remaining after 30 min w/ NADPH (%) [9] [%],Liver Microsome Stability (Multiple Species): Rat - % Remaining after 30 min w/ NADPH (%) [10] [%],other results
"O=C(Nc1nc(/C=C/c2ccc(OC3CC3)cc2F)cs1)c1cccn1Cc1ccnc(F)c1 [Compound B6, (E)-N-(4-(4-cyclopropoxy-2-fluorostyryl)thiazol-2-yl)-1-((2-fluoropyridin-4-yl)methyl)-1H-pyrrole-2-carboxamide]",6.86,< 4.60,< 4.60,6.35,14,6.58,9,24,42,7.51,63,41,
"C/C(=C\c1cn(C(C)C)cn1)c1csc(NC(=O)c2cccn2Cc2ccnc(F)c2)n1 [Compound B24, (E)-1-((2-fluoropyridin-4-yl)methyl)-N-(4-(1-(1-isopropyl-1H-imidazol-4-yl)prop-1-en-2-yl)thiazol-2-yl)-1H-pyrrole-2-carboxamide]",< 4.60,4.81,4.87,< 4.60,>46,< 4.60,>46,<1,1,6.27,3,1,
"O=C(Nc1nc(/C=C/c2ccc(Cl)cn2)cs1)c1cccn1Cc1ccnc(F)c1 [Compound B8, (E)-N-(4-(2-(5-chloropyridin-2-yl)vinyl)thiazol-2-yl)-1-((2-fluoropyridin-4-yl)methyl)-1H-pyrrole-2-carboxamide]",5.93,< 4.60,< 4.60,4.95,462,5.78,69,4,22,7.62,11,1,
"Cc1sc(NC(=O)c2cccn2Cc2ccnc(F)c2)nc1/C=C/c1cn(C(C)C)cn1 [Compound B23, (E)-1-((2-fluoropyridin-4-yl)methyl)-N-(4-(2-(1-isopropyl-1H-imidazol-4-yl)vinyl)-5-methylthiazol-2-yl)-1H-pyrrole-2-carboxamide]",,,,,>422,,>420,1,<1,,16,19,"pIC50 ([1]; read-out: 24 hr Dox Inducible Her3(ss + 4)Gluc 293FRT/TO: Mean IC50; Flp-In 293 T-REx cells, 24 hours with doxycycline; Table 3): 5.47; EC50 ([2]; U-266, 48 h, read-out: 48 hr U266 Viability Celltiter-Glo: Mean EC50 (nM)): > 25000 nM; EC50 ([3]; NCI-H929, 48 h, read-out: 48 hr H929 Viability Celltiter-Glo: Mean EC50 (nM)): > 25000 nM; pIC50 ([4]; read-out: 24 hr Dox Inducible TNFaFLGluc 293FRT/TO: Mean IC50; Flp-In 293 T-REx cells, 24 hours with doxycycline; Table 3): < 4.60; pIC50 ([5]; read-out: 24 hr Dox Inducible IL2FLGluc 293FRT/TO: Mean IC50; Flp-In 293 T-REx cells, 24 hours with doxycycline; Table 3): < 4.60; pIC50 ([8]; read-out: 24 hr Dox Inducible PD1ssGluc 293FRT/TO: Mean IC50; Flp-In 293 T-REx cells, 24 hours with doxycycline; Table 3): 7.23"
"C/C(=C\c1cn(C(C)C)cn1)c1csc(NC(=O)c2cccn2Cc2ccncc2)n1 [Compound B25, (E)-N-(4-(1-(1-isopropyl-1H-imidazol-4-yl)prop-1-en-2-yl)thiazol-2-yl)-1-(pyridin-4-ylmethyl)-1H-pyrrole-2-carboxamide]",< 4.60,4.76,4.86,< 4.60,>61,< 4.60,>62,<1,<1,6.39,0.05,<1,
"N#Cc1ocnc1/C=C/c1csc(NC(=O)c2cccn2Cc2ccnc(F)c2)n1 [Compound B19, (E)-N-(4-(2-(5-cyanooxazol-4-yl)vinyl)thiazol-2-yl)-1-((2-fluoropyridin-4-yl)methyl)-1H-pyrrole-2-carboxamide]",,< 4.60,< 4.60,,,,,6,7,,22,1,"pIC50 (CD47(ss + 10)Gluc): < 4.60; pIC50 ([5]; Flp-In 293 T-REx cells, 24 hours with doxycycline; Table 1; read-out: 24 hr Dox Inducible IL2FLGluc 293FRT/TO: Mean IC50): < 4.60; 24 hr Dox Inducible IL2FLGluc 293FRT/TO: IL2/PD1 ([5]; ratio of IC50s IL2/PD1; Table 1): >79; pIC50 ([11]; Flp-In 293 T-REx cells, 24 hours with doxycycline, read-out: 24hr Dox Inducible IL6R(ss + 10)Gluc 293FRT/TO: Mean IC50): < 4.60; 24hr Dox Inducible IL6R(ss + 10)Gluc 293FRT/TO: IL6R/PD1 ([11]; ratio of IC50s IL6R/PD1): >79; pIC50 ([8]; Flp-In 293 T-REx cells, 24 hours with doxycycline; Table 1; read-out: 24 hr Dox Inducible PD1ssGluc 293FRT/TO: Mean IC50): 6.50"

# Source: patent publication US20250171434A1, “SEC61 INHIBITORS AND USE THEREOF” (KEZAR LIFE SCIENCES, INC., priority 2022, published 2025)
